pIC50: −log10 of the molar value.
System: MEK
Experiment: Cellular Assay for Measuring MEK Inhibition (inhibition of ERK phosphorylation in C26 cells, Western blot)
Type: cell-based, murine
Settings: for pIC50: inhibition of ERK phosphorylation in murine colon 26 (C26) carcinoma cells, determined graphically from dose response curve; for % Inhibition @ 0.1 μM / % Inhibition @ 1 μM / % Inhibition @ 10 μM: ERK phosphorylation in C26 cells
Procedure: The evaluation of the compounds as MEK inhibitors was performed in an assay that measures their ability to inhibit phosphorylation of MAP kinase […]) in murine colon 26 (C26) carcinoma cells. Since ERK1 and ERK2 represent the only known substrates for MEK, measurement of inhibition of ERK phosphorylation in cells provides direct readout of cellular MEK inhibition by the compounds of the invention. Briefly, the assay involves treating exponentially growing C26 cells with varying concentrations of the test compound (or vehicle control) for […] at 37° C. Cells are then rinsed free of compound/vehicle and lysed in a solution containing 70 mM NaCl, 50 mM glycerol phosphate, 10 mM HEPES, pH 7.4, 1% Triton X-100, 1 mM Na3VO4, 100 μM PMSF, 10 μM leupeptin and 10 μM pepstatin. Supernatants are then subjected to gel electrophoresis and Western blotting using a primary antibody recognizing dually phosphorylated ERK1 and ERK2. To evaluate total MAPK levels, blots were subsequently ‘stripped’ and re-probed with a 1:1 mixture of polyclonal antibodies recognizing unphosphorylated ERK1 and ERK2.

Compound	pIC50	% Inhibition @ 0.1 μM [%]	% Inhibition @ 1 μM [%]	% Inhibition @ 10 μM [%]
CC(C)(O)CONC(=O)c1cc(Br)c(F)c(F)c1Nc1ccc(I)cc1Cl [Example 173, 5-Bromo-2-(2-chloro-4-iodo-phenylamino)-3,4-difluoro-N-(2-hydroxy-2-methyl-propoxy)-benzamide]	6.52			
Cc1cc(I)ccc1Nc1c(C(=O)NOCC(O)COc2ccccc2)cc(F)c(F)c1F (stereo not drawn) [Example 185, 3,4,5-Trifluoro-N-(2-hydroxy-3-phenoxy-propoxy)-2-(4-iodo-2-methyl-phenylamino)-benzamide]		6.2	71.9	
Cc1cc(I)ccc1Nc1c(C(=O)NOCCC(O)CO)ccc(F)c1F (stereo not drawn) [Example 95, N-(3,4-Dihydroxy-butoxy)-3,4-difluoro-2-(4-iodo-2-methyl-phenylamino)-benzamide]	6.72			
CCC(O)CONC(=O)c1cc(F)c(F)c(F)c1Nc1ccc(I)cc1Cl (stereo not drawn) [Example 105, 2-(2-Chloro-4-iodo-phenylamino)-3,4,5-trifluoro-N-(2-hydroxy-butoxy)-benzamide]		3.3	71.3	
CCC(O)CONC(=O)c1cc(Br)c(F)c(F)c1Nc1ccc(I)cc1C (stereo not drawn) [Example 108, 5-Bromo-3,4-difluoro-N-(2-hydroxy-butoxy)-2-(4-iodo-2-methyl-phenylamino)-benzamide]		74	94.6	
CC(CO)ONC(=O)c1cc(Br)c(F)c(F)c1Nc1ccc(I)cc1Cl (stereo not drawn) [Example 123, 5-Bromo-2-(2-chloro-4-iodo-phenylamino)-3,4-difluoro-N-(2-hydroxy-1-methyl-ethoxy)-benzamide]	7.68			
CC(C)(CO)CONC(=O)c1cc(Cl)c(F)c(F)c1Nc1ccc(F)cc1F [Example 203, 5-Chloro-2-(2,4-difluoro-phenylamino)-3,4-difluoro-N-(3-hydroxy-2,2-dimethyl-propoxy)-benzamide]			0	37.4
Cc1cc(I)ccc1Nc1c(C(=O)NOCC(C)(C)CO)cc(F)c(F)c1F [Example 199, 3,4,5-Trifluoro-N-(3-hydroxy-2,2-dimethyl-propoxy)-2-(4-iodo-2-methyl-phenylamino)-benzamide]	7.00			
O=C(NOC[C@H](O)CO)c1cc(Cl)c(F)c(F)c1Nc1ccc(I)cc1F [Example 53]	8.92			
Cc1cc(I)ccc1Nc1c(C(=O)NOC(C)CO)cc(Cl)c(F)c1F (stereo not drawn) [Example 119, 5-Chloro-3,4-difluoro-N-(2-hydroxy-1-methyl-ethoxy)-2-(4-iodo-2-methyl-phenylamino)-benzamide]		87.4	97.9	
O=C(NOCC1(CO)CC1)c1cc(Br)c(F)c(F)c1Nc1ccc(I)cc1F [Example 220, 5-Bromo-3,4-difluoro-2-(2-fluoro-4-iodo-phenylamino)-N-(1-hydroxymethyl-cyclopropylmethoxy)-benzamide]		35.4	88.8	
CC(CO)ONC(=O)c1cc(Cl)c(F)c(F)c1Nc1ccc(I)cc1Cl (stereo not drawn) [Example 127, 5-Chloro-2-(2-chloro-4-iodo-phenylamino)-3,4-difluoro-N-(2-hydroxy-1-methyl-ethoxy)-benzamide]	7.60			
O=C(NOCC1(CO)CC1)c1ccc(F)c(F)c1Nc1ccc(Cl)cc1F [Example 224, 2-(4-Chloro-2-fluoro-phenylamino)-3,4-difluoro-N-(1-hydroxymethyl-cyclopropylmethoxy)-benzamide]		0	18.1	
O=C(NOCC(O)CN1CCOCC1)c1cc(Cl)c(F)c(F)c1Nc1ccc(I)cc1Cl (stereo not drawn) [Example 149, 5-Chloro-2-(2-chloro-4-iodo-phenylamino)-3,4-difluoro-N-(2-hydroxy-3-morpholin-4-yl-propoxy)-benzamide]	6.77			
O=C(NOCC(O)COc1ccccc1)c1ccc(F)c(F)c1Nc1ccc(Cl)cc1F (stereo not drawn) [Example 196, 2-(4-Chloro-2-fluoro-phenylamino)-3,4-difluoro-N-(2-hydroxy-3-phenoxy-propoxy)-benzamide]		10.2	82.8	
Cc1cc(I)ccc1Nc1cc(F)ccc1C(=O)NOCCO [Example 5, 4-Fluoro-N-(2-hydroxy-ethoxy)-2-(4-iodo-2-methyl-phenylamino)-benzamide]	8.52			
CC(O)CONC(=O)c1cc(Cl)c(F)c(F)c1Nc1ccc(F)cc1F (stereo not drawn) [Example 166, 5-Chloro-2-(2,4-difluoro-phenylamino)-3,4-difluoro-N-(2-hydroxy-propoxy)-benzamide]		0	31.9	88.7
Cc1cc(I)ccc1Nc1c(C(=O)NOCCCO)cc(F)c(F)c1F [Example 100, 3,4,5-Trifluoro-N-(3-hydroxy-propoxy)-2-(4-iodo-2-methyl-phenylamino)-benzamide]	7.24			

Compound	pIC50	% Inhibition @ 0.1 μM [%]	% Inhibition @ 1 μM [%]	% Inhibition @ 10 μM [%]
O=C(NOCC(O)COc1ccccc1)c1ccc(F)c(F)c1Nc1ccc(I)cc1F (stereo not drawn) [Example 191, 3,4-Difluoro-2-(2-fluoro-4-iodo-phenylamino)-N-(2-hydroxy-3-phenoxy-propoxy)-benzamide]	8.22			
CCC(O)CONC(=O)c1ccc(F)c(F)c1Nc1ccc(I)cc1C (stereo not drawn) [Example 109, 3,4-Difluoro-N-(2-hydroxy-butoxy)-2-(4-iodo-2-methyl-phenylamino)-benzamide]	7.42			
CC(C)(O)CONC(=O)c1ccc(F)c(F)c1Nc1ccc(F)cc1F [Example 181, 2-(2,4-Difluoro-phenylamino)-3,4-difluoro-N-(2-hydroxy-2-methyl-propoxy)-benzamide]			0	65.1
Cc1cc(I)ccc1Nc1c(C(=O)NOCC(O)CO)ccc(F)c1F (stereo not drawn) [Example 89, N-(2,3-Dihydroxy-propoxy)-3,4-difluoro-2-(4-iodo-2-methyl-phenylamino)-benzamide]	7.92			
O=C(NOCC(O)C(F)(F)F)c1cc(F)c(F)c(F)c1Nc1ccc(I)cc1F (stereo not drawn) [Example 210, 3,4,5-Trifluoro-2-(2-fluoro-4-iodo-phenylamino)-N-(3,3,3-trifluoro-2-hydroxy-propoxy)-benzamide]		79.7	99.2	
O=C(NOCC(O)COc1ccccc1)c1cc(Br)c(F)c(F)c1Nc1ccc(I)cc1Cl (stereo not drawn) [Example 186, 5-Bromo-2-(2-chloro-4-iodo-phenylamino)-3,4-difluoro-N-(2-hydroxy-3-phenoxy-propoxy)-benzamide]	7.47			
O=C(NOCCNc1ccccc1)c1cc(Br)c(F)c(F)c1Nc1ccc(I)cc1Cl [Example 235, 5-Bromo-2-(2-chloro-4-iodo-phenylamino)-3,4-difluoro-N-(2-phenylamino-ethoxy)-benzamide]	7.21			
Cc1cc(I)ccc1Nc1c(C(=O)NOCCC(O)CO)cc(F)c(F)c1F (stereo not drawn) [Example 96, N-(3,4-Dihydroxy-butoxy)-3,4,5-trifluoro-2-(4-iodo-2-methyl-phenylamino)-benzamide]		35	87.1	
Cc1cc(I)ccc1Nc1c(C(=O)NOCC(C)O)ccc(F)c1F (stereo not drawn) [Example 162, 3,4-Difluoro-N-(2-hydroxy-propoxy)-2-(4-iodo-2-methyl-phenylamino)-benzamide]	8.11			
Cc1cc(I)ccc1Nc1c(C(=O)NOCC(C)O)cc(Cl)c(F)c1F (stereo not drawn) [Example 163, 5-Chloro-3,4-difluoro-N-(2-hydroxy-propoxy)-2-(4-iodo-2-methyl-phenylamino)-benzamide]		88.9	95.1	
O=C(NOCC1CC1CO)c1ccc(F)c(F)c1Nc1ccc(Cl)cc1F (stereo not drawn) [Example 216, 2-(4-Chloro-2-fluoro-phenylamino)-3,4-difluoro-N-(2-hydroxymethyl-cyclopropylmethoxy)-benzamide]		41.2	87.6	
O=C(NOCC(O)COc1ccccc1)c1ccc(F)c(F)c1Nc1ccc(F)cc1F (stereo not drawn) [Example 195, 2-(2,4-Difluoro-phenylamino)-3,4-difluoro-N-(2-hydroxy-3-phenoxy-propoxy)-benzamide]			26.7	82.6
O=C(NOCC(O)CN1CCOCC1)c1ccc(F)c(F)c1Nc1ccc(Cl)cc1F (stereo not drawn) [Example 155, 2-(4-Chloro-2-fluoro-phenylamino)-3,4-difluoro-N-(2-hydroxy-3-morpholin-4-yl-propoxy)-benzamide]		0	30.9	
CC(O)CONC(=O)c1ccc(F)c(F)c1Nc1ccc(F)cc1F (stereo not drawn) [Example 167, 2-(2,4-Difluoro-phenylamino)-3,4-difluoro-N-(2-hydroxy-propoxy)-benzamide]			80.5	89.2
O=C(NOCC1(CO)CC1)c1ccc(F)c(F)c1Nc1ccc(F)cc1F [Example 222, 2-(2,4-Difluoro-phenylamino)-3,4-difluoro-N-(1-hydroxymethyl-cyclopropylmethoxy)-benzamide]			9.6	55.6
O=C(NOCC(O)COc1ccccc1)c1cc(F)c(F)cc1Nc1ccc(I)cc1F (stereo not drawn) [Example 193, 4,5-Difluoro-2-(2-fluoro-4-iodo-phenylamino)-N-(2-hydroxy-3-phenoxy-propoxy)-benzamide]	8.00			
CC(=O)OCCONC(=O)c1cc(F)c(F)c(F)c1Nc1ccc(I)cc1C [Example 82, Acetic acid 2-({1-[3,4,5-trifluoro-2-(4-iodo-2-methyl-phenylamino)-phenyl]-methanoyl}-aminooxy)-ethyl ester]	< 6.00			

— patent US6960614B2, “Oxygenated esters of 4-lodo phenylamino benzhydroxamic acids” (Warner-Lambert Company, priority 2000, dated 2005)
